What was measured:
A2780 [1] = assay: Inhibition of A2780 / DDP-S human ovarian carcinoma cell proliferation; type: functional, cell-based
A549 = assay: Inhibition of A549 human lung carcinoma cell proliferation; type: functional, cell-based
A-431 = assay: Inhibition of A431 human squamous cell carcinoma cell proliferation; type: functional, cell-based
A2780 [2] = assay: Inhibition of A2780 / DDP-R human ovarian carcinoma cell proliferation; type: functional, cell-based
A2780 [3] = assay: Inhibition of A2780 / TAX-R human ovarian carcinoma cell proliferation; type: functional, cell-based
A2780 [4] = assay: Inhibition of A2780 / TAX-S human ovarian carcinoma cell proliferation; type: functional, cell-based
ABAE = assay: Inhibition of ABAE […] cell proliferation; type: functional, cell-based
Caco-2 = assay: Inhibition of CACO-2 human colon carcinoma cell proliferation; type: functional, cell-based
[5] = target: Cyclin-dependent kinase 2 (Homo sapiens) (UniProt P24941); assay: Percentage A2780 cells in sub-G1 after 24 hr r at 20 nM (IC50); type: functional, cell-based
[6] = target: Cyclin-dependent kinase 2 (Homo sapiens) (UniProt P24941); assay: Percentage A2780 cells in S-phase after 24 hr r at 20 nM (IC50); type: functional, cell-based
[7] = target: Cyclin-dependent kinase 2 (Homo sapiens) (UniProt P24941); assay: Percentage A2780 cells in G1 after 24 hr r at 295 nM (IC90); type: functional, cell-based
[8] = target: Cyclin-dependent kinase 2 (Homo sapiens) (UniProt P24941); assay: Percentage A2780 cells in G2/M after 24 hr r at 295 nM (IC90); type: functional, cell-based
[9] = target: Cyclin-dependent kinase 2 (Homo sapiens) (UniProt P24941); assay: Percentage A2780 cells in S-phase after 24 hr r at 295 nM (IC90); type: functional, cell-based
[10] = target: Cyclin-dependent kinase 2 (Homo sapiens) (UniProt P24941); assay: Apoptotic A2780 cells after 24 hr r at 295 nM (IC90); type: functional, cell-based
[11] = target: Cyclin-dependent kinase 2 (Homo sapiens) (UniProt P24941); assay: Percentage A2780 cells in sub-G1 after 24 hr r at 295 nM (IC90); type: functional, cell-based
[12] = target: Cyclin-dependent kinase 2 (Homo sapiens) (UniProt P24941); assay: Percentage A2780 cells in G1 after 24 hr r at 20 nM (IC50); type: functional, cell-based
[13] = target: Cyclin-dependent kinase 2 (Homo sapiens) (UniProt P24941); assay: Percentage A2780 cells in G2/M after 24 hr r at 20 nM (IC50); type: functional, cell-based
[14] = target: Cyclin-dependent kinase 2 (Homo sapiens) (UniProt P24941); assay: Apoptotic A2780 cells after 24 hr r at 20 nM (IC50); type: functional, cell-based
[15] = target: Cyclin-dependent kinase 1/cyclin B (Homo sapiens, UniProt P06493); assay: Inhibitory activity against baculovirus expressed Cyclin dependent kinase 1-cyclinB; type: protein-complex assay
[16] = target: Cyclin-dependent kinase 2/cyclin E (Homo sapiens, UniProt P24941); assay: Inhibitory activity against baculovirus expressed Cyclin dependent kinase 2-cyclinE; type: protein-complex assay
[17] = target: Cyclin-dependent kinase 4/cyclin D1 (Homo sapiens, UniProt P11802); assay: Inhibitory activity against baculovirus expressed Cyclin dependent kinase 4-cyclinD1; type: protein-complex assay
Chain of Cyclin-dependent kinase 4/cyclin D1 (P11802 whole entry): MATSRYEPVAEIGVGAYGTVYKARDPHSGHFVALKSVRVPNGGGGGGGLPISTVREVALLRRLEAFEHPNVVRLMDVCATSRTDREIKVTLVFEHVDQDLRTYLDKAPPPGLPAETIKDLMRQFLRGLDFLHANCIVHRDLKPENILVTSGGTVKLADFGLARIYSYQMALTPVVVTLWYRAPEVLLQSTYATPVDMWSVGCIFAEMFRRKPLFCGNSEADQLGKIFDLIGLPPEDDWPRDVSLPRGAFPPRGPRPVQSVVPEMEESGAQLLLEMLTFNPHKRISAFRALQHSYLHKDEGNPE
Chain of Cyclin-dependent kinase 4/cyclin D1 (P24385 whole entry, further chain): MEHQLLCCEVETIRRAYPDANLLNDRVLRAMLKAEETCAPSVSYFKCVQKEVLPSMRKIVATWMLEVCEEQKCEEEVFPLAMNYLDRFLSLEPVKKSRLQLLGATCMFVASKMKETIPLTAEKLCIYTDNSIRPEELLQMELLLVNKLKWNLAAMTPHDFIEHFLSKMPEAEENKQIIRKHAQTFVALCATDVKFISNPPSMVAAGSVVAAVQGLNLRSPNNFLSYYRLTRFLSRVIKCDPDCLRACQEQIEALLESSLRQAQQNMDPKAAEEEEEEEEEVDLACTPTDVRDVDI

[18] = target: Receptor tyrosine-protein kinase erbB-2 (Homo sapiens, UniProt P04626); assay: Inhibition of HER2 kinase
Chain of Receptor tyrosine-protein kinase erbB-2 (P04626 whole entry): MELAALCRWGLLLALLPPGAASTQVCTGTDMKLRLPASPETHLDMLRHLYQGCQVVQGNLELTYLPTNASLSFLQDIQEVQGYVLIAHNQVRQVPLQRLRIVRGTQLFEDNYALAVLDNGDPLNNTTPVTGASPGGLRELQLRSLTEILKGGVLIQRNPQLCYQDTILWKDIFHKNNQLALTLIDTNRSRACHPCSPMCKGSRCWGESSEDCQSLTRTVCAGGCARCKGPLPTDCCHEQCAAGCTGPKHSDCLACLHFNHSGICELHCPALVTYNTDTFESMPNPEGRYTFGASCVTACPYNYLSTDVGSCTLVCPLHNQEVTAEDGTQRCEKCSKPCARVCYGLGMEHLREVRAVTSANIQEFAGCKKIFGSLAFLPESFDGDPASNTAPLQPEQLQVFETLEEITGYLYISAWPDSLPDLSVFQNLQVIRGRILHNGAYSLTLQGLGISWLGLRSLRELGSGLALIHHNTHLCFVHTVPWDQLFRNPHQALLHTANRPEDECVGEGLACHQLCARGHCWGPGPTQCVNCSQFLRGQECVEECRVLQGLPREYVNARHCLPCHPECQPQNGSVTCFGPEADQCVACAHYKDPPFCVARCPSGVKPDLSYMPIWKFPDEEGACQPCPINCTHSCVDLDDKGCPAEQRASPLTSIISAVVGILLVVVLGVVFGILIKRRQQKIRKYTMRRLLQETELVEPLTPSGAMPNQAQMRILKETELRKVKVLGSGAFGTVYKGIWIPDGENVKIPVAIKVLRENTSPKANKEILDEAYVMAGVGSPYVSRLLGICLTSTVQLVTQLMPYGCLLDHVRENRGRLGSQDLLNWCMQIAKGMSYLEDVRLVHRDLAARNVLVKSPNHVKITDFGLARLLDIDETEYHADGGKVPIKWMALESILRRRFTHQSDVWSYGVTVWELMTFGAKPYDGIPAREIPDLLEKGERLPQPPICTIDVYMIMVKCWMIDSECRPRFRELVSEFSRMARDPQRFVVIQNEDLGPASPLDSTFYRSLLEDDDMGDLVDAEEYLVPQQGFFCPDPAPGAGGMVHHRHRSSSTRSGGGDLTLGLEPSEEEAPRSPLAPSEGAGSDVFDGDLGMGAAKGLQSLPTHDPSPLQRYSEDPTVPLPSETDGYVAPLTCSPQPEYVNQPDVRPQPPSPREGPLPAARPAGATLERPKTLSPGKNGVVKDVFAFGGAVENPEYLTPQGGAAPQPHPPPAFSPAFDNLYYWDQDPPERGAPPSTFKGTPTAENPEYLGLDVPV

HCT-116 [19] = assay: Inhibition of HCT116 human colon carcinoma cell proliferation; type: functional, cell-based
HCT-116 [20] = assay: Inhibition of HCT116 / VP35 human colon carcinoma cell proliferation; type: functional, cell-based
HCT-116 [21] = assay: Inhibition of HCT116 / VM46 human colon carcinoma cell proliferation; type: functional, cell-based
HL-60 = assay: Inhibition of HL60 human leukemia cell proliferation; type: functional, cell-based
HS27 = assay: Inhibition of Hs 27 human fibroblast cell proliferation; type: functional, cell-based
[22] = Inhibition of Insulin-like growth factor receptor
K562 = assay: Inhibition of K562 human leukemia cell proliferation; type: functional, cell-based
LS174T = assay: Inhibition of LS174T human colon carcinoma cell proliferation; type: functional, cell-based
MCF7 = assay: Inhibition of MCF-7 human breast carcinoma cell proliferation; type: functional, cell-based
MLF = assay: Inhibition of MLF mouse lung fibroblast cell proliferation; type: functional, cell-based
LX-1 = assay: Inhibition of LX-1 human lung carcinoma proliferation; type: functional, cell-based
MIP = assay: Inhibition of MIP human colon carcinoma cell line; type: functional, cell-based
OVCAR-3 = assay: Inhibition of OVCAR-3 human ovarian carcinoma cell proliferation; type: functional, cell-based
PC-3 = assay: Inhibition of PC3 human prostate carcinoma cell proliferation; type: functional, cell-based
SK-BR-3 = assay: Inhibition of SKBR-3 human breast carcinoma cell proliferation; type: functional, cell-based
[23] = target: T1, Tyrosine-protein kinase ITK/TSK (Homo sapiens, UniProt Q08881); assay: Inhibition of tyrosine kinase EMT
T1 sequence (Q08881 whole entry): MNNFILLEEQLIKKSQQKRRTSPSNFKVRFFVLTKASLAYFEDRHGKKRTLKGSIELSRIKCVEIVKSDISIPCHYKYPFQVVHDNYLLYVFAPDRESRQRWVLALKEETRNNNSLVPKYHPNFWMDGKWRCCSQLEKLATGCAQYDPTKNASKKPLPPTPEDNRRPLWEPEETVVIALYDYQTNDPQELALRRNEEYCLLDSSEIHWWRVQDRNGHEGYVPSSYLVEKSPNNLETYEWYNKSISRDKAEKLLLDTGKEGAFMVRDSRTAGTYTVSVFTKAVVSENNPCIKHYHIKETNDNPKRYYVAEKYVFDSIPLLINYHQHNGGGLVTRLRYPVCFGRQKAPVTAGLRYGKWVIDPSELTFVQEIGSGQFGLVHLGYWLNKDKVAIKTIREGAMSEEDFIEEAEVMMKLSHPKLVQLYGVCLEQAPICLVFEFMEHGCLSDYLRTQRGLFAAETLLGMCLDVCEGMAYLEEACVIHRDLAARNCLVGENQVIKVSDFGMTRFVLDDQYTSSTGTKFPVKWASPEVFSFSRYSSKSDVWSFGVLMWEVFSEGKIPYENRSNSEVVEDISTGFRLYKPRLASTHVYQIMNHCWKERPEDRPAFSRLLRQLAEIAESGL

M109 = assay: Inhibition of M109 mouse lung carcinoma cell proliferation; type: functional, cell-based
CCRF-CEM = assay: Inhibition of CCRF-CEM human leukemia cell proliferation; type: functional, cell-based
A2780 [24] = assay: cells; conditions: Homo sapiens
Description: Cytotoxic activity against A2780 human ovarian carcinoma cell line

Compound `CCc1cnc(CSc2cnc(NC(C)=O)s2)o1` has an IC50 (A2780 [1]) of 1050 nM, an IC50 (A549) of 1870 nM and an IC50 (A-431) of 960 nM. The IC50 (A2780 [2]) was 1420 nM, the IC50 (A2780 [3]) was 1140 nM and the IC50 (A2780 [4]) was 700 nM. For the same compound, the IC50 (ABAE) was 1100 nM, the IC50 (Caco-2) was 1610 nM and the Cell cycle [5] was 2%. For the same compound, the Cell cycle [6] was 11%, the Cell cycle [7] was 62% and the Cell cycle [8] was 25%. For the same compound, the Cell cycle [9] was 6%, the Cell cycle [10] was 16% and the Cell cycle [11] was 7%. For the same compound, the Cell cycle [12] was 58%, the Cell cycle [13] was 29% and the Cell cycle [14] was 6%. The IC50 [15] was 300 nM, the IC50 [16] was 20 nM and the IC50 [17] was 2250 nM. It also gave an IC50 [18] of over 25000 nM, an IC50 (HCT-116 [19]) of 480 nM and an IC50 (HCT-116 [20]) of 450 nM. It also gave an IC50 (HCT-116 [21]) of 530 nM, an IC50 (HL-60) of 1400 nM and an IC50 (HS27) of 860 nM. For the same compound, the IC50 [22] was over 25000 nM, the IC50 (K562) was 3230 nM and the IC50 (LS174T) was 1710 nM. For the same compound, the IC50 (MCF7) was 1470 nM, the IC50 (MLF) was 1860 nM and the IC50 (LX-1) was 1900 nM. It also gave an IC50 (MIP) of 1790 nM, an IC50 (OVCAR-3) of 1210 nM and an IC50 (PC-3) of 1060 nM. For the same compound, the IC50 (SK-BR-3) was 1640 nM, the IC50 [23] was over 10000 nM and the IC50 (M109) was 2100 nM. The IC50 (CCRF-CEM) was 1450 nM and the IC50 (A2780 [24]) was 1400 nM.
